# From US7737175B2, “Methods and compositions for regulating HDAC4 activity” (Duke University, priority 2007, dated 2010)
# How the values were obtained:
# HDAC4 [1] = molecular target: T1, HDAC4 (Mus musculus, UniProt Q6NZM9); test: PGC-1α and myoglobin expression in tibialis anterior electroporated with HDAC4-siRNA; type: in vivo; design: HDAC4 siRNA results in more than 80% reduction in HDAC4; from tissue; host or cells: mouse tibialis anterior muscle, in vivo; details: fast/glycolytic tibialis anterior muscle
# Description: (§1) Mouse Procedures. Mice were anaesthetized with a Ketamine/Xylazine mixture (25 mg/ml Ketamine, 1 mg/ml Xylazine in 0.9% NaCl; 100 ul used per mouse. Hair was removed from area surrounding muscle. For denervation, sciatic nerve was exposed and ˜[…] piece of nerve was cut and removed. Incision was sutured and mice were allowed to recover. For overexpression electroporation analysis, 25 ug GFP, HDAC4-GFP, or HDAC4-3SA-GFP was used for injection. For siRNA experiments, 500 pmol siRNA oligo was used for injection. DNA or siRNA were directly injected into TA muscles using cemented MicroSyringe (VWR). ECM 830 electroporator (BTX) was used for all electroporations. Tweezertrodes (Model 520) were coated with transmission gel and were placed outside the skin around the muscle belly and pulsed 5 times at 50V, 60 ms duration, with 200 ms interval time. Mice were allowed to recover in their cages. Stealth siRNA duplexed oligos are from Invitrogen. Sequences are; mouse HDAC4: 5′ […] 3′ (SEQ ID NO:3), mouse HDAC5: 5′ […] 3′ (SEQ ID NO:4).
# RNA analysis. For RNA analysis, TA muscles were dounce homogenized in 1 ml Tri reagent (MRC) and incubated at 4° C. overnight. 200 ul chloroform was added, and after vigorous shaking, samples were centrifuged at 12000 rpm for 10 min. […] Real-time quantitative PCR was performed using iQ SYBER Green Supermix on the iCycler™ iQ Detection System (Biorad). […]
# HDAC4 [2] = molecular target: T1, HDAC4; test: muscle atrophy after surgical denervation of siRNA-electroporated tibialis anterior (fiber size, atrophy genes by RT-PCR); type: in vivo; design: HDAC4 siRNA results in more than 80% reduction in HDAC4; from tissue; host or cells: mouse tibialis anterior muscle, in vivo
# Description: as §1
# RNA analysis. For RNA analysis, TA muscles were dounce homogenized in 1 ml Tri reagent (MRC) and incubated at 4° C. overnight. 200 ul chloroform was added, and after vigorous shaking, samples were centrifuged at 12000 rpm for 10 min. Top aqueous layer was added to 500 ul isopropanol, mixed well, and centrifuged at 12000 rpm for 10 min. RNA pellet was washed with 70% ethanol, air-dried, and resuspended in DEPC water for RT-PCR analysis. For northern blotting, 10 ug total RNA was run on a 1% formaldehyde RNA gel. Gel was transferred onto Hybond N+ membrane and probed using radiolabeled fragments of HDAC4 or Atrogin-1 cDNA generated from Prime-it kit II (Stratagene). Blots were exposed for 2 hr at −80° C. For RT-PCR analysis, total RNA was DNase treated using DNA-free kit (Ambion), and 1 ug RNA was used for cDNA synthesis reaction using iScript cDNA Synthesis Kit (Biorad). Samples were diluted 1:50 and 5 ul cDNA was used per RT-PCR reaction. Real-time quantitative PCR was performed using iQ SYBER Green Supermix on the iCycler™ iQ Detection System (Biorad). Sample volume was 20 ul per reaction. Efficiency and specificity of primers were confirmed by standard PCR and DNA electrophoresis. RT-PCR Program on iCycler™ was 95° C. 15 sec, 60° C. 30 sec, 72° C. 30 sec. All real-time PCR values were normalized to either actin or 18S rRNA. RT-PCR primer sequences are as follows: G-actin: forward 5′-[…] 3′ (SEQ ID NO:5), reverse 5′ […] 3′ (SEQ ID NO:6); 18S: forward 5′ […] 3′ (SEQ ID NO:7), reverse 5′ […] 3′ (SEQ ID NO:8); Dach2: forward 5′-[…] 3′ (SEQ ID NO:9), reverse 5′ […] 3′ (SEQ ID NO:10); nAChRα: forward 5′ CGTCTGGTGGCAAAGCT 3′ (SEQ ID NO:11), reverse 5′-CCGCTCTCCATGAAGTT 3′ (SEQ ID NO:12); MGN: forward 5′-[…] […]
# To establish a role for HDAC4 in muscle atrophy, scrambled control siRNA or HDAC4-specific siRNA were electroporated into tibialis anterior (TA) followed by denervation. […] The extent of muscle atrophy was then analyzed by measuring muscle fiber size and the induction of atrophy-specific genes, MuRF1 and atrogin 1, two E3 ligases essential for muscle atrophy. […]
# HDAC4 [3] = molecular target: T1, HDAC4; test: in vivo siRNA knockdown in mouse tibialis muscle, denervation, RT-PCR of Dach2/MGN/nAChR; design: HDAC4 siRNA results in more than 80% reduction in HDAC4; from tissue; host or cells: mouse tibialis anterior muscle, in vivo; details: siRNA electroporated into tibialis, denervated 3 days
# Description: as §1
# RNA analysis. For RNA analysis, TA muscles were dounce homogenized in 1 ml Tri reagent (MRC) and incubated at 4° C. overnight. 200 ul chloroform was added, and after vigorous shaking, samples were centrifuged at 12000 rpm for 10 min. Top aqueous layer was added to 500 ul isopropanol, mixed well, and centrifuged at 12000 rpm for 10 min. RNA pellet was washed with 70% ethanol, air-dried, and resuspended in DEPC water for RT-PCR analysis. For northern blotting, 10 ug total RNA was run on a 1% formaldehyde RNA gel. Gel was transferred onto Hybond N+ membrane and probed using radiolabeled fragments of HDAC4 or Atrogin-1 cDNA generated from Prime-it kit II (Stratagene). Blots were exposed for 2 hr at −80° C. For RT-PCR analysis, total RNA was DNase treated using DNA-free kit (Ambion), and 1 ug RNA was used for cDNA synthesis reaction using iScript cDNA Synthesis Kit (Biorad). Samples were diluted 1:50 and 5 ul cDNA was used per RT-PCR reaction. Real-time quantitative PCR was performed using iQ SYBER Green Supermix on the iCycler™ iQ Detection System (Biorad). […]
# HDAC4 [4] = molecular target: T1, HDAC4; details: daily injection
# T1 sequence (Q6NZM9 whole entry): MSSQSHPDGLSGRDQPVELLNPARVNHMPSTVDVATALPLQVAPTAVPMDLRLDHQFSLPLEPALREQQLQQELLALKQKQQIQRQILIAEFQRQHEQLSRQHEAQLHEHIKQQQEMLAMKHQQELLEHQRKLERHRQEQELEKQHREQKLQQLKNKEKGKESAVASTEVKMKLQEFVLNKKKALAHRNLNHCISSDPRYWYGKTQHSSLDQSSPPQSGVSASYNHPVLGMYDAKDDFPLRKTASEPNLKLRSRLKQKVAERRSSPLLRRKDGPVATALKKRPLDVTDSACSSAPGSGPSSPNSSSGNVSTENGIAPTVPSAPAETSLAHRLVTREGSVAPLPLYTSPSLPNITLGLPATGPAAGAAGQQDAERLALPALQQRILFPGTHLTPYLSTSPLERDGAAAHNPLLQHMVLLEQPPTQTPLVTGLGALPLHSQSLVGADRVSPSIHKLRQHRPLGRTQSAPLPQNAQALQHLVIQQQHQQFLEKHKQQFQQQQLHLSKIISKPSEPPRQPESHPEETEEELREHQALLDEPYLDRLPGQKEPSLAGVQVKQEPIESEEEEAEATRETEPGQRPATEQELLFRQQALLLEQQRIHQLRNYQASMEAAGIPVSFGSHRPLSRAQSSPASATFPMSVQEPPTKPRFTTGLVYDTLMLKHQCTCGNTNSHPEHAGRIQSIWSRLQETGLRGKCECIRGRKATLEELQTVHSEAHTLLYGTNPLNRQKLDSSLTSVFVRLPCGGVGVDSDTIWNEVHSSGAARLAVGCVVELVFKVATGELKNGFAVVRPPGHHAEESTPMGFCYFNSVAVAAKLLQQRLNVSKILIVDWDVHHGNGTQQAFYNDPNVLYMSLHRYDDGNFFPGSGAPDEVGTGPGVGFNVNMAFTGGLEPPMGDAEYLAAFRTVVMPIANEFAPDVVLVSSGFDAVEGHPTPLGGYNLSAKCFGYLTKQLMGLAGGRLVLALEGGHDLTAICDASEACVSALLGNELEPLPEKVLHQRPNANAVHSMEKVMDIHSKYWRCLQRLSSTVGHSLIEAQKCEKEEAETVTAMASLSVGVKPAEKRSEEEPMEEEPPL
PGC-1α expression (HDAC4 [1]),myoglobin expression (HDAC4 [1]),atrogin 1 expression after denervation (HDAC4 [2]; RT-PCR),induction of MuRF1 by denervation (HDAC4 [2]; RT-PCR),"atrophy (reduction in TA muscle size) after denervation (HDAC4 [2]; denervation for 12 days, versus control siRNA)",reduction in HDAC4 (HDAC4 [2]; siRNA electroporated into tibialis anterior),size of individual fibers of denervated muscles (HDAC4 [2]; versus fibers that received control siRNA),induction of MGN after denervation (HDAC4 [3]),induction of nAChR after denervation (HDAC4 [3]),repression of Dach2 that occurs during denervation (HDAC4 [3]; 7 days after electroporation),level of PGC-1α (HDAC4 [4]),Substance
elevation,elevation,modestly affected,significantly inhibited,largely prevented,more than 80%,much larger,dramatically reduced,dramatically reduced,significantly alleviates,,5′ CACCGGAACCUGAACCACUGCAUUU 3′ (SEQ ID NO:3) [HDAC4 siRNA]
,,,,,,,,,,increase,Trichostatin A
